Drawing on patent US10836764B2, “5-HT2C receptor agonists and compositions and methods of use” (Arena Pharmaceuticals, Inc., priority 2016, dated 2020), this text covers Ki and EC50 for 26 molecules.

Read-outs that look alike come from different tables or passages of the source.

Assay [1] deals with T1, 5-HT2A receptor (Homo sapiens (Human), UniProt P28223). Description: DOI radioligand binding assay, 5-HT2A. The following applies: [125I]DOI competition, HEK293 cell membranes; read-out: DOI Binding 5HT2A. As for the experimental part: For the compounds of Table A, the following procedure was used. HEK293 cells stably expressing recombinant 5-HT2 receptors were harvested, suspended in ice-cold phosphate buffered saline, pH 7.4 (PBS), and then centrifuged at 48,000 g for 20 min at 4° C. The resulting cell pellet was then re-suspended in wash buffer containing 20 mM HEPES, pH 7.4 and 0.1 mM EDTA, homogenized on ice using a Brinkman Polytron, and centrifuged (48,000 g for 20 min at 4° C.). The pellet was then resuspended in 20 mM HEPES, pH 7.4, homogenized on ice, and centrifuged (48,000 g for 20 min at 4° C.). Crude membrane pellets were stored at −80° C. until used for radioligand binding assays.
For the compounds of Table A, the following procedure was used. […] Experiments comprised addition of 95 μL of assay buffer (20 mM HEPES, pH 7.4, 10 mM MgCl2), 50 μL of membranes, 50 μL of radioligand stock, and 5 μL of test compound diluted in assay buffer to 96-well microtiter plates, which were then incubated for 1 h at room temperature. Assay incubations were terminated by rapid filtration through PerkinElmer F/C filtration plates under reduced pressure using a 96-well Packard filtration apparatus, followed by washing three times with ice cold assay buffer. Plates were then dried at 45° C. for a minimum of 2 h. Finally, 25 μL of BetaScint™ scintillation cocktail was added to each well and the plates were counted in a Packard TopCount® scintillation counter. In each competition study, test compounds were dosed at ten concentrations with triplicate determinations at each test concentration.

A further assay concerns the target 5-HT2B receptor (Homo sapiens (Human), UniProt P41595). Description: IP accumulation assay, 5-HT2B. The format is cell-based. As for the experimental part: (§1) HEK293 cells expressing recombinant 5-HT2 receptors were added to sterile poly-D-lysine-coated 96-well microtiter plates (35,000 cells/well) and labeled with 0.6 μCi/well of [^3H]inositol in myoinositol-free DMEM for 18 h. Unincorporated [^3H]inositol was removed by aspiration and replaced with fresh myoinositol-free DMEM supplemented with LiCl (10 mM final) and pargyline (10 μM final). Serially diluted test compounds were then added and incubation was conducted for 2 h at 37° C. (5-HT2B, and 5-HT2A) and RT (5-HT2C). Incubations were then terminated by lysing cells with the addition of ice-cold 0.1 M formic acid followed by freezing at −80° C. After thawing, total [^3H]inositol phosphates were resolved from [^3H]inositol using AG1-X8 ion exchange resin (Bio-Rad) and [^3H]inositol phosphates were measured by scintillation counting using a Perkin Elmer TopCount® scintillation counter. All EC50 determinations were performed using 10 different concentrations and triplicate determinations were made at each test concentration.

The target in a further assay is 5-HT2C receptor (Homo sapiens (Human), UniProt P28335). The assay is described as follows: IP accumulation assay, 5-HT2C. The format is cell-based. As for the experimental part:
as §1

Assay [2] addresses T1, 5-HT2A receptor. Description: IP accumulation assay, 5-HT2A. The format is cell-based. As for the experimental part: as §1
The mark [3] stands for this setting: IP accumulation, HEK293 cells, 2 h at 37° C., read-out: EC50 5HT2B.
Where [4] appears, read: IP accumulation, HEK293 cells, 2 h at RT, read-out: EC50 5HT2C.
Where [5] appears, read: IP accumulation, HEK293 cells, 2 h at 37° C., read-out: EC50 5HT2A.

Sequence of 5-HT2B receptor (P41595 whole entry): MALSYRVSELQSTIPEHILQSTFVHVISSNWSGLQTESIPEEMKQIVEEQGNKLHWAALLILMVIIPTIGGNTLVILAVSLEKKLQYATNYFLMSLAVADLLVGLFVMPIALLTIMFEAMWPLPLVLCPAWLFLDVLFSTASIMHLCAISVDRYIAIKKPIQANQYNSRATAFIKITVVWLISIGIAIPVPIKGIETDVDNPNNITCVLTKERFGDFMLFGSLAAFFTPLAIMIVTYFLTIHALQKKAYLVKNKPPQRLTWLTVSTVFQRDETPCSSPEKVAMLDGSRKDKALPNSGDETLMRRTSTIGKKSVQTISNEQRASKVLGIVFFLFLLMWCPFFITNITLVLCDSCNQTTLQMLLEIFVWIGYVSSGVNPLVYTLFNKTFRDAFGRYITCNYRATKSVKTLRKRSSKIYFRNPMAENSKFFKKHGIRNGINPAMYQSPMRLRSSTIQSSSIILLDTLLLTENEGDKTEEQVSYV
T1 sequence (P28223 whole entry): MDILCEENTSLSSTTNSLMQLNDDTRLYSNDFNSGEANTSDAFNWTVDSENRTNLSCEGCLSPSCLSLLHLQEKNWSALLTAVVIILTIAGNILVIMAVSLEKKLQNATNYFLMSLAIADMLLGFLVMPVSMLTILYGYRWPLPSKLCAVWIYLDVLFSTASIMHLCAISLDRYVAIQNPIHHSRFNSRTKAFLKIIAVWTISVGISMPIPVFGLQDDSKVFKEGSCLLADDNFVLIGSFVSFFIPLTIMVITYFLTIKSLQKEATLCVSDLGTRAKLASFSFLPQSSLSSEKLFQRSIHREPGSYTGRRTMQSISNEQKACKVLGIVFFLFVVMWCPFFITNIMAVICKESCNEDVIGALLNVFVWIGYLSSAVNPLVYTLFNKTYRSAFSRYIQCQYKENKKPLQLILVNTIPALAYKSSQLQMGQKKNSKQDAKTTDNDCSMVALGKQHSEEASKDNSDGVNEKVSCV
Sequence of 5-HT2C receptor (P28335 33-458): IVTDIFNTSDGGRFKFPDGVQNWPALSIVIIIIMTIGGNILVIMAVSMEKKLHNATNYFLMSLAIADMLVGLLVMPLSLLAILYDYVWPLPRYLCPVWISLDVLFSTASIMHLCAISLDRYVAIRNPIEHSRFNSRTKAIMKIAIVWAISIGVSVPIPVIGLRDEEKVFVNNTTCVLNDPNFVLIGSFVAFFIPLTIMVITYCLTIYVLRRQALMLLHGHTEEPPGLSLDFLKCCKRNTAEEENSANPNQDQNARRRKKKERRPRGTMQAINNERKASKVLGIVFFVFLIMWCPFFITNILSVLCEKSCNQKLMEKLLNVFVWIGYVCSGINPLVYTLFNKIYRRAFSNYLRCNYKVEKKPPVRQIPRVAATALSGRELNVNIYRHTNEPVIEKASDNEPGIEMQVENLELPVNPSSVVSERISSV

As to `CCc1c(CC2CCCC2)cnc2c1CC[C@@H]1CNCCN21` [Compound 171, (R)-3-(cyclopentylmethyl)-4-ethyl-6,6a,7,8,9,10-hexahydro-5H-pyrazino[1,2-a][1,8]naphthyridine], on 5-HT2A receptor [1], the Ki was determined as 0.351 µM.
`CCc1c(COC(C)C)cnc2c1CC[C@@H]1CNCCN21` [Compound 163, (R)-4-ethyl-3-(isopropoxymethyl)-6,6a,7,8,9,10-hexahydro-5H-pyrazino[1,2-a][1,8]naphthyridine]: the Ki at 5-HT2A receptor [1] stood at 0.468 µM.
For the molecule `CNC(=O)c1ccnc2c1CC[C@@H]1CNCCN21` [Compound 102, (R)-N-methyl-6,6a,7,8,9,10-hexahydro-5H-pyrazino[1,2-a][1,8]naphthyridine-4-carboxamide], the 50% effective concentration (EC50) (in general, the concentration at which the effect is half-maximal) at 5-HT2B receptor (setting [3]) was not below 100 µM; at 5-HT2C receptor (setting [4]), 100 µM; at 5-HT2A receptor [2] it was not below 100 µM.
`O=C(Nc1ccnc2c1CC[C@@H]1CNCCN21)c1ccccc1Cl` [Compound 104, (R)-2-chloro-N-(6,6a,7,8,9,10-hexahydro-5H-pyrazino[1,2-a][1,8]naphthyridin-4-yl)benzamide]: the concentration for a half-maximal effect (EC50) at 5-HT2B receptor (setting [3]) is not below 100 µM; on 5-HT2C receptor (setting [4]), 100 µM; on 5-HT2A receptor [2] it was not below 100 µM.
With `CCOC(=O)Nc1ccnc2c1CC[C@@H]1CNCCN21` [Compound 123, (R)-ethyl(6,6a,7,8,9,10-hexahydro-5H-pyrazino[1,2-a][1,8]naphthyridin-4-yl)carbamate], the EC50 is not below 100 µM on 5-HT2B receptor (setting [3]), 0.898 µM on 5-HT2C receptor (setting [4]) and not below 100 µM on 5-HT2A receptor [2].
As for `CCCC(=O)Nc1ccnc2c1CC[C@@H]1CNCCN21` [Compound 125, (R)-N-(6,6a,7,8,9,10-hexahydro-5H-pyrazino[1,2-a][1,8]naphthyridin-4-yl)butyramide], the half-maximal effective concentration (EC50) on 5-HT2B receptor (setting [3]) was not below 100 µM; on 5-HT2C receptor (setting [4]) it was 100 µM; at 5-HT2A receptor [2] it was not below 100 µM.
For the molecule `CSc1nc(Cl)c2c(n1)N1CCNC[C@H]1CC2` [Compound 169, (R)-4-chloro-2-(methylthio)-6,6a,7,8,9,10-hexahydro-5H-pyrazino[1′,2′:1,6]pyrido[2,3-d]pyrimidine], the Ki on 5-HT2A receptor [1] was 0.129 µM.
As to `c1cc(-c2ccc3c(c2)OCO3)c2c(n1)N1CCNC[C@H]1CC2` [Compound 101, (R)-4-(benzo[d][1,3]dioxol-5-yl)-6,6a,7,8,9,10-hexahydro-5H-pyrazino[1,2-a][1,8]naphthyridine], the EC50 is not below 100 µM on 5-HT2B receptor (setting [3]), 7.51 µM at 5-HT2C receptor (setting [4]) and not below 100 µM at 5-HT2A receptor [2].
Turning to `O=C(NCC(F)F)c1ccnc2c1CC[C@@H]1CNCCN21` [Compound 140, (R)-N-(2,2-difluoroethyl)-6,6a,7,8,9,10-hexahydro-5H-pyrazino[1,2-a][1,8]naphthyridine-4-carboxamide], the EC50 on 5-HT2B receptor (setting [3]) was not below 100 µM; at 5-HT2C receptor (setting [4]) it was 4.62 µM; at 5-HT2A receptor [2] it was not below 100 µM.
Consider `c1cc2c(cn1)CC[C@@H]1CNCCN21` [Compound 155, (R)-2,3,4,4a,5,6-hexahydro-1H-pyrazino[1,2-a][1,6]naphthyridine], for which the figures for the concentration giving a half-maximal response (EC50) on 5-HT2B receptor, on 5-HT2C receptor and at 5-HT2A receptor [2] were not below 100 µM, 100 µM and not below 100 µM, respectively.
As for `c1cc(C2CC2)c2c(n1)N1CCNC[C@H]1CC2` [Compound 151, (R)-4-cyclopropyl-6,6a,7,8,9,10-hexahydro-5H-pyrazino[1,2-a][1,8]naphthyridine], the EC50 at 5-HT2B receptor is 0.015 µM; at 5-HT2C receptor it was 0.00622 µM; at 5-HT2A receptor [2] it was 0.435 µM.
On to `c1cc(C2CCCCC2)c2c(n1)N1CCNC[C@H]1CC2` [Compound 127, (R)-4-cyclohexyl-6,6a,7,8,9,10-hexahydro-5H-pyrazino[1,2-a][1,8]naphthyridine], for which the concentration giving a half-maximal response (EC50) is 0.919 µM at 5-HT2B receptor (setting [3]), 1.51 µM on 5-HT2C receptor (setting [4]) and 9.07 µM on 5-HT2A receptor [2].
Take `O=C(Nc1ccnc2c1CC[C@@H]1CNCCN21)N1CCCC1` [Compound 131, (R)-N-(6,6a,7,8,9,10-hexahydro-5H-pyrazino[1,2-a][1,8]naphthyridin-4-yl)pyrrolidine-1-carboxamide]: the EC50 was not below 100 µM on 5-HT2B receptor (setting [3]), 100 µM at 5-HT2C receptor (setting [4]) and not below 100 µM on 5-HT2A receptor [2].
For the molecule `O=C(Nc1ccnc2c1CC[C@@H]1CNCCN21)c1cccc(F)c1F` [Compound 138, (R)-2,3-difluoro-N-(6,6a,7,8,9,10-hexahydro-5H-pyrazino[1,2-a][1,8]naphthyridin-4-yl)benzamide], the EC50 on 5-HT2B receptor (setting [3]) is not below 100 µM; at 5-HT2C receptor (setting [4]), 5.82 µM; on 5-HT2A receptor [2] (setting [5]) it was not below 100 µM.
On to `c1cnc2c(c1)CC[C@@H]1CNCCN21` [Compound 148, (R)-6,6a,7,8,9,10-hexahydro-5H-pyrazino[1,2-a][1,8]naphthyridine], for which the EC50 amounted to 0.0612 µM at 5-HT2B receptor (setting [3]), 0.0934 µM at 5-HT2C receptor (setting [4]) and 100 µM on 5-HT2A receptor [2] (setting [5]).
In the case of `O=C(Nc1ccnc2c1CC[C@@H]1CNCCN21)c1ccccc1` [Compound 139, (R)-N-(6,6a,7,8,9,10-hexahydro-5H-pyrazino[1,2-a][1,8]naphthyridin-4-yl)benzamide], the half-maximal effective concentration (EC50) is not below 100 µM at 5-HT2B receptor (setting [3]), 100 µM at 5-HT2C receptor (setting [4]) and not below 100 µM on 5-HT2A receptor [2].
With `c1cc(C2CCC2)c2c(n1)N1CCNC[C@H]1CC2` [Compound 149, (R)-4-cyclobutyl-6,6a,7,8,9,10-hexahydro-5H-pyrazino[1,2-a][1,8]naphthyridine], at 5-HT2A receptor [2] (setting [5]), the 50% effective concentration (EC50) amounted to 0.236 µM. Also, the Ki at 5-HT2A receptor [1] amounted to 0.0103 µM.
For `FC(F)(F)c1ccccc1-c1ccnc2c1CC[C@@H]1CNCCN21` [Compound 134, (R)-(2-(trifluoromethyl)phenyl)-6,6a,7,8,9,10-hexahydro-5H-pyrazino[1,2-a][1,8]naphthyridine], the EC50 is 1.73 µM on 5-HT2B receptor (setting [3]), 5.61 µM on 5-HT2C receptor (setting [4]) and not below 100 µM on 5-HT2A receptor [2].
Turning to `FC(F)(F)Oc1cccc(-c2ccnc3c2CC[C@@H]2CNCCN32)c1` [Compound 105, (R)-4-(3-(trifluoromethoxy)phenyl)-6,6a,7,8,9,10-hexahydro-5H-pyrazino[1,2-a][1,8]naphthyridine], the values for the half-maximal effective concentration (EC50) at 5-HT2B receptor (setting [3]), on 5-HT2C receptor (setting [4]) and on 5-HT2A receptor [2] (setting [5]) were not below 100 µM, 3.07 µM and not below 100 µM, respectively.
For the molecule `Clc1ccnc2c1CC[C@@H]1CNCCN21` [Compound 150, (R)-4-chloro-6,6a,7,8,9,10-hexahydro-5H-pyrazino[1,2-a][1,8]naphthyridine], the 50% effective concentration (EC50) is 0.0454 µM at 5-HT2B receptor, 0.00519 µM at 5-HT2C receptor and 1.33 µM on 5-HT2A receptor [2].
As to `CC1CC2CNCCN2c2ncccc21` (stereo not drawn) [Compound 158, 5-methyl-6,6a,7,8,9,10-hexahydro-5H-pyrazino[1,2-a][1,8]naphthyridine], the Ki at 5-HT2A receptor [1] came to 1.08 µM.
On to `O=C(Cc1ccccc1)Nc1ccnc2c1CC[C@@H]1CNCCN21` [Compound 124, (R)-N-(6,6a,7,8,9,10-hexahydro-5H-pyrazino[1,2-a][1,8]naphthyridin-4-yl)-2-phenylacetamide], for which the figures for the EC50 on 5-HT2B receptor (setting [3]), on 5-HT2C receptor (setting [4]) and at 5-HT2A receptor [2] were not below 100 µM, 3.66 µM and not below 100 µM, respectively.
In the case of `O=C(Nc1ccnc2c1CC[C@@H]1CNCCN21)C1CC1` [Compound 141, (R)-N-(6,6a,7,8,9,10-hexahydro-5H-pyrazino[1,2-a][1,8]naphthyridin-4-yl)cyclopropanecarboxamide], the EC50 on 5-HT2B receptor (setting [3]) was not below 100 µM; at 5-HT2C receptor (setting [4]), 100 µM; on 5-HT2A receptor [2], not below 100 µM.
For the molecule `CCCC(C)c1ccnc2c1CC[C@@H]1CNCCN21` (stereo partly drawn) [Compound 109, (6aR)-4-(pentan-2-yl)-6,6a,7,8,9,10-hexahydro-5H-pyrazino[1,2-a][1,8]naphthyridine], the Ki on 5-HT2A receptor [1] stood at 0.0259 µM.
As for `CCc1c(C2CCC2)cnc2c1CC[C@@H]1CNCCN21` [Compound 166, (R)-3-cyclobutyl-4-ethyl-6,6a,7,8,9,10-hexahydro-5H-pyrazino[1,2-a][1,8]naphthyridine], the Ki on 5-HT2A receptor [1] is 0.958 µM.
Turning to `CCCc1cncc2c1CC[C@@H]1CNCCN21` [Compound 173, (R)-4-propyl-6,6a,7,8,9,10-hexahydro-5H-pyrazino[1,2-a][1,7]naphthyridine], the Ki at 5-HT2A receptor [1] was 0.044 µM.
